# Inconclusive results and toxic doses are left out.
# Test system: CD2F1 mice, L1210 leukemia ip, survival T/C
# Assay: NCI In Vivo Anticancer Drug Screen. Data for tumor model L1210 Leukemia (intraperitoneal) in CD2F1 (CDF1) mice
# Settings: higher = longer survival
# Outline: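 Activity against a transplanted murine tumor was judged by comparing the compound group with a vehicle group. The outcome in the treated animals was divided by that in the controls.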
# [1] = endpoint: mean survival time, dose: 25.0 mg/kg/injection, schedule: Q04DX003 (ip), vehicle: saline
# [2] = endpoint: mean survival time, dose: 50.0 mg/kg/injection, schedule: Q04DX003 (ip), vehicle: saline
# [3] = endpoint: mean survival time, dose: 100.0 mg/kg/injection, schedule: Q04DX003 (ip), vehicle: saline
# [4] = endpoint: mean survival time, dose: 100.0 mg/kg/injection, schedule: Q01DX009 (ip), vehicle: saline with Tween-80
# [5] = endpoint: mean survival time, dose: 200.0 mg/kg/injection, schedule: Q01DX009 (ip), vehicle: saline with Tween-80
# [6] = endpoint: mean survival time, dose: 100.0 mg/kg/injection, schedule: Q04DX003 (ip), vehicle: saline with Tween-80
# [7] = endpoint: mean survival time, dose: 200.0 mg/kg/injection, schedule: Q04DX003 (ip), vehicle: saline with Tween-80
# [8] = endpoint: mean survival time, dose: 400.0 mg/kg/injection, schedule: Q01DX009 (ip), vehicle: saline with Tween-80
# [9] = endpoint: mean survival time, dose: 400.0 mg/kg/injection, schedule: Q04DX003 (ip), vehicle: saline with Tween-80
# [10] = endpoint: mean survival time, dose: 100.0 mg/kg/injection, schedule: Q01DX009 (ip), vehicle: saline
# [11] = endpoint: mean survival time, dose: 200.0 mg/kg/injection, schedule: Q01DX009 (ip), vehicle: saline
# [12] = endpoint: mean survival time, dose: 25.0 mg/kg/injection, schedule: Q01DX009 (ip), vehicle: saline with Tween-80
# [13] = endpoint: mean survival time, dose: 50.0 mg/kg/injection, schedule: Q01DX009 (ip), vehicle: saline with Tween-80
structure (smiles),measurement,setting,value
[NH-]C(CO)C(=O)O.[NH-]C(CO)C(=O)O.[Pt+2] (centres undefined),T/C,"endpoint: mean survival time, dose: 0.78 mg/kg/injection, schedule: Q04DX003 (ip), vehicle: saline with Tween-80",100 % of control
same,T/C,"endpoint: mean survival time, dose: 1.56 mg/kg/injection, schedule: Q04DX003 (ip), vehicle: saline with Tween-80",92 % of control
same,T/C,"endpoint: mean survival time, dose: 3.13 mg/kg/injection, schedule: Q04DX003 (ip), vehicle: saline with Tween-80",95 % of control
same,T/C,"endpoint: mean survival time, dose: 3.13 mg/kg/injection, schedule: Q04DX003 (ip), vehicle: water",100 % of control
same,T/C,"endpoint: mean survival time, dose: 6.25 mg/kg/injection, schedule: Q04DX003 (ip), vehicle: saline with Tween-80",97 % of control
same,T/C,"endpoint: mean survival time, dose: 6.25 mg/kg/injection, schedule: Q04DX003 (ip), vehicle: saline",102 % of control
same,T/C,"endpoint: mean survival time, dose: 6.25 mg/kg/injection, schedule: Q04DX003 (ip), vehicle: water",103 % of control
same,T/C,"endpoint: mean survival time, dose: 12.5 mg/kg/injection, schedule: Q04DX003 (ip), vehicle: saline with Tween-80",94 % of control
same,T/C,"endpoint: mean survival time, dose: 12.5 mg/kg/injection, schedule: Q04DX003 (ip), vehicle: saline",103 % of control
same,T/C,"endpoint: mean survival time, dose: 12.5 mg/kg/injection, schedule: Q04DX003 (ip), vehicle: water",101 % of control
same,T/C,[1],100 % of control
same,T/C,"endpoint: mean survival time, dose: 25.0 mg/kg/injection, schedule: Q04DX003 (ip), vehicle: water",91 % of control
same,T/C,[2],103 % of control
same,T/C,"endpoint: mean survival time, dose: 50.0 mg/kg/injection, schedule: Q04DX003 (ip), vehicle: water",94 % of control
same,T/C,[3],103 % of control
same,T/C,"endpoint: mean survival time, dose: 100.0 mg/kg/injection, schedule: Q04DX003 (ip), vehicle: water",88 % of control
same,T/C,"endpoint: mean survival time, dose: 200.0 mg/kg/injection, schedule: Q04DX003 (ip), vehicle: saline",86 % of control
same,T/C,"endpoint: mean survival time, dose: 200.0 mg/kg/injection, schedule: Q04DX003 (ip), vehicle: water",88 % of control
NS(=O)(=O)c1ccc(Cl)c(Cl)c1,T/C,[4],108 % of control
same,T/C,[5],111 % of control
CC(=O)OCC(COC(C)=O)(COC(C)=O)COC(C)=O,T/C,[4],97 % of control
same,T/C,[6],100 % of control
same,T/C,[5],97 % of control
same,T/C,[7],96 % of control
same,T/C,[8],98 % of control
same,T/C,[9],93 % of control
CC(C)(C)OC1C2C=CC1C1C2C2(Cl)C(Cl)=C(Cl)C1(Cl)C21OCCO1 (centres undefined),T/C,"endpoint: mean survival time, dose: 41.25 mg/kg/injection, schedule: Q04DX002 (ip), vehicle: Klucel (hydroxypropylcellulose) (HPC)",98 % of control
same,T/C,"endpoint: mean survival time, dose: 50.0 mg/kg/injection, schedule: Q04DX002 (ip), vehicle: Klucel (hydroxypropylcellulose) (HPC)",97 % of control
same,T/C,"endpoint: mean survival time, dose: 82.5 mg/kg/injection, schedule: Q04DX002 (ip), vehicle: Klucel (hydroxypropylcellulose) (HPC)",100 % of control
same,T/C,"endpoint: mean survival time, dose: 100.0 mg/kg/injection, schedule: Q04DX002 (ip), vehicle: Klucel (hydroxypropylcellulose) (HPC)",98 % of control
same,T/C,"endpoint: mean survival time, dose: 165.0 mg/kg/injection, schedule: Q04DX002 (ip), vehicle: Klucel (hydroxypropylcellulose) (HPC)",98 % of control
same,T/C,"endpoint: mean survival time, dose: 200.0 mg/kg/injection, schedule: Q04DX002 (ip), vehicle: Klucel (hydroxypropylcellulose) (HPC)",98 % of control
same,T/C,"endpoint: mean survival time, dose: 330.0 mg/kg/injection, schedule: Q04DX002 (ip), vehicle: Klucel (hydroxypropylcellulose) (HPC)",98 % of control
same,T/C,"endpoint: mean survival time, dose: 400.0 mg/kg/injection, schedule: Q04DX002 (ip), vehicle: Klucel (hydroxypropylcellulose) (HPC)",97 % of control
CC(=O)NC1CCCCC1,T/C,[4],104 % of control
same,T/C,[5],102 % of control
Cc1ccc(-c2cc(O)cc(-c3ccc(C)cc3C)c2O)c(C)c1,T/C,"endpoint: mean survival time, dose: 400.0 mg/kg/injection, schedule: Q01DX001 (ip), vehicle: saline with Tween-80",91 % of control
NCC(=O)Nc1ccccc1,T/C,[10],103 % of control
same,T/C,[11],113 % of control
same,T/C,"endpoint: mean survival time, dose: 400.0 mg/kg/injection, schedule: Q01DX009 (ip), vehicle: saline",97 % of control
CCN(CC)CC(=O)Nc1c(C)cccc1C,T/C,[12],95 % of control
same,T/C,[13],95 % of control
same,T/C,[4],89 % of control
same,T/C,[6],95 % of control
CCCCCC/C=C\C(=O)O,T/C,"endpoint: mean survival time, dose: 50.0 mg/kg/injection, schedule: Q01DX009 (ip), vehicle: saline",101 % of control
same,T/C,[10],97 % of control
same,T/C,[6],98 % of control
same,T/C,[11],93 % of control
same,T/C,[7],93 % of control
same,T/C,[9],87 % of control
NNC(=O)CC(O)(C1CC1)C1CC1,T/C,"endpoint: mean survival time, dose: 100.0 mg/kg/injection, schedule: Q04DX002 (ip), vehicle: saline",112 % of control
same,T/C,"endpoint: mean survival time, dose: 200.0 mg/kg/injection, schedule: Q04DX002 (ip), vehicle: saline",96 % of control
same,T/C,"endpoint: mean survival time, dose: 400.0 mg/kg/injection, schedule: Q04DX002 (ip), vehicle: saline",100 % of control
CCCN(CCC)C(=O)[S-].CCCN(CCC)C(=O)[S-].[Ni+2],T/C,"endpoint: mean survival time, dose: 6.25 mg/kg/injection, schedule: Q01DX009 (ip), vehicle: saline with Tween-80",95 % of control
same,T/C,"endpoint: mean survival time, dose: 6.25 mg/kg/injection, schedule: Q04DX003 (ip), vehicle: saline sonified",99 % of control
same,T/C,"endpoint: mean survival time, dose: 12.5 mg/kg/injection, schedule: Q01DX009 (ip), vehicle: saline with Tween-80",106 % of control
same,T/C,"endpoint: mean survival time, dose: 12.5 mg/kg/injection, schedule: Q04DX003 (ip), vehicle: saline sonified",97 % of control
same,T/C,[12],106 % of control
same,T/C,"endpoint: mean survival time, dose: 25.0 mg/kg/injection, schedule: Q04DX003 (ip), vehicle: saline sonified",103 % of control
CC(C)[C@](O)(C(=O)OCC1=CCN2CC[C@@H](O)[C@@H]12)[C@H](C)O,T/C,"endpoint: median survival time, dose: 12.5 mg/kg/injection, schedule: Q01DX009 (ip), vehicle: water",103 % of control
same,T/C,"endpoint: median survival time, dose: 25.0 mg/kg/injection, schedule: Q01DX009 (ip), vehicle: water",100 % of control
same,T/C,"endpoint: median survival time, dose: 50.0 mg/kg/injection, schedule: Q01DX009 (ip), vehicle: water",98 % of control
same,T/C,"endpoint: median survival time, dose: 100.0 mg/kg/injection, schedule: Q01DX009 (ip), vehicle: water",122 % of control
same,T/C,"endpoint: median survival time, dose: 200.0 mg/kg/injection, schedule: Q01DX009 (ip), vehicle: water",112 % of control
same,T/C,"endpoint: median survival time, dose: 400.0 mg/kg/injection, schedule: Q01DX009 (ip), vehicle: water",112 % of control
CC1=NNC(=O)C1CCO (centres undefined),T/C,"endpoint: median survival time, dose: 25.0 mg/kg/injection, schedule: Q01DX009 (ip), vehicle: Klucel (hydroxypropylcellulose) (HPC)",103 % of control
same,T/C,"endpoint: median survival time, dose: 50.0 mg/kg/injection, schedule: Q01DX009 (ip), vehicle: Klucel (hydroxypropylcellulose) (HPC)",100 % of control
same,T/C,"endpoint: median survival time, dose: 100.0 mg/kg/injection, schedule: Q01DX009 (ip), vehicle: Klucel (hydroxypropylcellulose) (HPC)",98 % of control
same,T/C,"endpoint: median survival time, dose: 200.0 mg/kg/injection, schedule: Q01DX009 (ip), vehicle: Klucel (hydroxypropylcellulose) (HPC)",102 % of control
same,T/C,"endpoint: median survival time, dose: 400.0 mg/kg/injection, schedule: Q01DX009 (ip), vehicle: Klucel (hydroxypropylcellulose) (HPC)",103 % of control
same,T/C,"endpoint: median survival time, dose: 800.0 mg/kg/injection, schedule: Q01DX009 (ip), vehicle: Klucel (hydroxypropylcellulose) (HPC)",104 % of control
O=c1[nH]c(=O)n([C@H]2CCCO2)cc1F,T/C,"endpoint: mean survival time, dose: 25.0 mg/kg/injection, schedule: Q01DX005 (ip), vehicle: other",93 % of control
same,T/C,[12],97 % of control
same,T/C,[1],90 % of control
same,T/C,"endpoint: mean survival time, dose: 50.0 mg/kg/injection, schedule: Q01DX005 (ip), vehicle: other",93 % of control
same,T/C,[13],101 % of control
same,T/C,[2],100 % of control
same,T/C,"endpoint: mean survival time, dose: 100.0 mg/kg/injection, schedule: Q01DX005 (ip), vehicle: other",114 % of control
same,T/C,[3],105 % of control
same,T/C,"endpoint: mean survival time, dose: 112.5 mg/kg/injection, schedule: Q04DX003 (ip), vehicle: saline with Tween-80",106 % of control
same,T/C,"endpoint: mean survival time, dose: 112.5 mg/kg/injection, schedule: Q04DX003 (iv), vehicle: saline with Tween-80",104 % of control
same,T/C,"endpoint: mean survival time, dose: 225.0 mg/kg/injection, schedule: Q04DX003 (ip), vehicle: saline with Tween-80",116 % of control
same,T/C,"endpoint: mean survival time, dose: 225.0 mg/kg/injection, schedule: Q04DX003 (iv), vehicle: saline with Tween-80",113 % of control
same,T/C,"endpoint: mean survival time, dose: 400.0 mg/kg/injection, schedule: Q01DX005 (ip), vehicle: other",95 % of control
same,T/C,[8],104 % of control
same,T/C,"endpoint: mean survival time, dose: 400.0 mg/kg/injection, schedule: Q04DX003 (ip), vehicle: saline",158 % of control
same,T/C,"endpoint: mean survival time, dose: 450.0 mg/kg/injection, schedule: Q04DX003 (ip), vehicle: saline with Tween-80",153 % of control
CCCCCCCCCCOc1ccc(OCCCCCCCCC)cc1,T/C,"endpoint: mean survival time, dose: 100.0 mg/kg/injection, schedule: Q01DX001 (ip), vehicle: saline with Tween-80",86 % of control
same,T/C,"endpoint: mean survival time, dose: 200.0 mg/kg/injection, schedule: Q01DX001 (ip), vehicle: saline with Tween-80",90 % of control
COc1ccc(C(C)=O)cc1[N+](=O)[O-],T/C,[4],98 % of control
same,T/C,[6],96 % of control
same,T/C,[5],97 % of control
same,T/C,[7],102 % of control
same,T/C,[9],94 % of control
